According to ChEMBL document CHEMBL1909046, “DrugMatrix in vitro pharmacology data”:

Key:
Glycine receptor = Glycine receptor (Rattus norvegicus, UniProt P22771+P24524+P07727+P20781); assay type: cell membranes, Wistar, Spinal cord, Membrane; also: in other assays of this panel Not Active means under 50% inhibition at 10 µM
Endothelin-1 receptor = target: T1, Endothelin-1 receptor (Homo sapiens, UniProt P25101); assay type: cell membranes, Membrane; conditions: cho-k1; also: in other assays of this panel Not Active means under 50% inhibition at 10 µM
T1 sequence (P25101 whole entry): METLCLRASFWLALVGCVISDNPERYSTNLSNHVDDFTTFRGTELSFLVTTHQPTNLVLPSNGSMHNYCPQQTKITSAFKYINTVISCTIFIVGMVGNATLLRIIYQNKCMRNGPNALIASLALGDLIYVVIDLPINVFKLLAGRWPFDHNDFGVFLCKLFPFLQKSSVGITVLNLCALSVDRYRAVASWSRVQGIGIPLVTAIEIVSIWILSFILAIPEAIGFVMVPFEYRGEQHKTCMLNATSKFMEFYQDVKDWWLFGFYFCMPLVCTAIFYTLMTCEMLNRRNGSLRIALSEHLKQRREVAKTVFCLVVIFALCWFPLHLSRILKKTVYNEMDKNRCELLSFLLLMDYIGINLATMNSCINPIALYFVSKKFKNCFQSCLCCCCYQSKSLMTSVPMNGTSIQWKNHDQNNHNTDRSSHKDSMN

Calcitonin receptor = target: T2, Calcitonin receptor (Homo sapiens, UniProt P30988); assay type: cell membranes, Membrane; conditions: t47d; also: in other assays of this panel Not Active means under 50% inhibition at 10 µM
T2 sequence (P30988 whole entry): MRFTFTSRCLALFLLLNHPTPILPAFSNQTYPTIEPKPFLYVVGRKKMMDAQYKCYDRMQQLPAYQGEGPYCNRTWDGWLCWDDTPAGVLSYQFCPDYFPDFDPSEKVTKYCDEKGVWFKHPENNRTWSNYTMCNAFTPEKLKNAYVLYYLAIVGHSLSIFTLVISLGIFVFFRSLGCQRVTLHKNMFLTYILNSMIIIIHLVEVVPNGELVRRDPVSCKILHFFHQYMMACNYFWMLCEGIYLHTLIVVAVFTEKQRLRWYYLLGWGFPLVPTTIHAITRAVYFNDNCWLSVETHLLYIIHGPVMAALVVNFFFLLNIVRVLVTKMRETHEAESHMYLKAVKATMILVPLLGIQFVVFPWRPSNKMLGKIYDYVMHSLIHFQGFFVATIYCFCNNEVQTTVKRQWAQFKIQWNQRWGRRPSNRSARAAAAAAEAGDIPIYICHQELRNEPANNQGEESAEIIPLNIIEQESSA

Progesterone receptor = target: T3, Progesterone receptor (Bos taurus, UniProt Q690N0); test: DRUGMATRIX: Progesterone radioligand binding (ligand: [3H] R-5020); assay type: tissue-based, Uterus; conditions: Not Active = under 50% inhibition at 10 µM
T3 sequence (Q690N0 whole entry): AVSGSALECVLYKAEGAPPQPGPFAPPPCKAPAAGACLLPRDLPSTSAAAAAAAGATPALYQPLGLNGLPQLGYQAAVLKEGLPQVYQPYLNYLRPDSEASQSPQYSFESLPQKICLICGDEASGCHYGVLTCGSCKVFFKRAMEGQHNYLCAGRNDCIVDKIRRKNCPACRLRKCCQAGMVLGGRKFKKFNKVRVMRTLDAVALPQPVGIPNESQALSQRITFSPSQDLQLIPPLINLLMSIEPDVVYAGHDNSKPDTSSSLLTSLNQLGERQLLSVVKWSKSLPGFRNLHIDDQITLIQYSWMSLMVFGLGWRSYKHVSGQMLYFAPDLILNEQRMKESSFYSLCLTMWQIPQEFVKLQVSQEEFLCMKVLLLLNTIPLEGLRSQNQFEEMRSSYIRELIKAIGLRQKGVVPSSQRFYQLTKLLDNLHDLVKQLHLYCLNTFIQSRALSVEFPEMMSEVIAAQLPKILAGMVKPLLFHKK

[1] = target: Vascular endothelial growth factor receptor 1 (Homo sapiens, UniProt P17948); assay type: cell-based; conditions: huvec; also: in other assays of this panel Not Active means under 50% inhibition at 10 µM
Vascular endothelial growth factor receptor 1, sequence (P17948 whole entry): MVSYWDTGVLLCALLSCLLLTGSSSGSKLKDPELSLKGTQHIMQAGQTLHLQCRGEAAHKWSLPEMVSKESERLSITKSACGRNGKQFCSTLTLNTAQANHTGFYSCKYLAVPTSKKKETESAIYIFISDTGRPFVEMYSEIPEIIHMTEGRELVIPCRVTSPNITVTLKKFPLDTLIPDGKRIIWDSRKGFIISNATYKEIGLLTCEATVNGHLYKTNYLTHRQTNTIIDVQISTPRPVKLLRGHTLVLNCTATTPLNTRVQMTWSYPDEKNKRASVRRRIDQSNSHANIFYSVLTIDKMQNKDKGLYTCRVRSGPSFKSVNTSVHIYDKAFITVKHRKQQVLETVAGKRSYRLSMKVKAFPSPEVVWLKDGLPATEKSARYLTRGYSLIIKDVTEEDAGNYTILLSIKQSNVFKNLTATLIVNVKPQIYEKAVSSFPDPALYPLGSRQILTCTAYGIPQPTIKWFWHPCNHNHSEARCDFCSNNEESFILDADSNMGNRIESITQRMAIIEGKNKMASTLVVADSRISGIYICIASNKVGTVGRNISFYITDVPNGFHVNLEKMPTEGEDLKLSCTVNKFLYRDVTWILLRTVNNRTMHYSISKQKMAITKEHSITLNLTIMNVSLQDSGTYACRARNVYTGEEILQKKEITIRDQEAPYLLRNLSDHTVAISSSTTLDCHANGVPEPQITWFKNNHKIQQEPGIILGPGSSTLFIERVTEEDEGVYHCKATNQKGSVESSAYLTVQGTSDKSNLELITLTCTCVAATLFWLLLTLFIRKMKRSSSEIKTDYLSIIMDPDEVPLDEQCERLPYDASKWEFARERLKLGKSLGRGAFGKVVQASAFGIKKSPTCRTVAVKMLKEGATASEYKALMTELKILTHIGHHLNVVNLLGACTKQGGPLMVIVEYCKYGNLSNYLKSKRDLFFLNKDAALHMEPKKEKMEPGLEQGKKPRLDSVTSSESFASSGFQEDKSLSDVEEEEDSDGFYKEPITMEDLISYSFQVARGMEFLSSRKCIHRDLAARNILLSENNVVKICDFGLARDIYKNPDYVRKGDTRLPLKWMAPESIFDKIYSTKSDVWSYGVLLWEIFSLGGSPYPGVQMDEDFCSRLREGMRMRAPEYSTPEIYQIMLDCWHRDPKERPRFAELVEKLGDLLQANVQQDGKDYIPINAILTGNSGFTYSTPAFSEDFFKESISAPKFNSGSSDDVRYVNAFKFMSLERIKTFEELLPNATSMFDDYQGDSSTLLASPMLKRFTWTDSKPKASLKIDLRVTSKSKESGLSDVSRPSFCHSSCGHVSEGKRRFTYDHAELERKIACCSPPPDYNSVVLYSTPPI

D(1A) dopamine receptor = D(1A) dopamine receptor (Homo sapiens, UniProt P21728); test: DRUGMATRIX: Dopamine D1 radioligand binding (ligand: [3H] SCH-23390); assay type: cell membranes, CHO, Membrane; conditions: cho; Not Active = under 50% inhibition at 10 µM
D(1A) dopamine receptor, sequence (P21728 whole entry): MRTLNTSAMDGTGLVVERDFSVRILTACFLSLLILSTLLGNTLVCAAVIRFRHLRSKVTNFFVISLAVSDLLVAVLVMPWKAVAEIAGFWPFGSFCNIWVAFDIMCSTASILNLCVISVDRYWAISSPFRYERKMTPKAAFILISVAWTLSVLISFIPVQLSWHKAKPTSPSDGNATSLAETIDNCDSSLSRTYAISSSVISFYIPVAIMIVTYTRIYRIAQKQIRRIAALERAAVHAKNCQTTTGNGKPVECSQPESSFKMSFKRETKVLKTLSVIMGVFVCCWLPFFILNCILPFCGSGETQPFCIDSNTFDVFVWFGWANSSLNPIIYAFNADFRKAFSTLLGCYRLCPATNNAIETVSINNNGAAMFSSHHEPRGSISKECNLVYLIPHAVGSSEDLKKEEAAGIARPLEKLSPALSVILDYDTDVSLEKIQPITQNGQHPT

Adenosine receptor A2a = Adenosine receptor A2a (Homo sapiens, UniProt P29274); test: DRUGMATRIX: Adenosine A2A radioligand binding (ligand: […]); assay type: cell membranes, HEK293, Membrane; conditions: hek293; Not Active = under 50% inhibition at 10 µM
Adenosine receptor A2a, sequence (P29274 whole entry): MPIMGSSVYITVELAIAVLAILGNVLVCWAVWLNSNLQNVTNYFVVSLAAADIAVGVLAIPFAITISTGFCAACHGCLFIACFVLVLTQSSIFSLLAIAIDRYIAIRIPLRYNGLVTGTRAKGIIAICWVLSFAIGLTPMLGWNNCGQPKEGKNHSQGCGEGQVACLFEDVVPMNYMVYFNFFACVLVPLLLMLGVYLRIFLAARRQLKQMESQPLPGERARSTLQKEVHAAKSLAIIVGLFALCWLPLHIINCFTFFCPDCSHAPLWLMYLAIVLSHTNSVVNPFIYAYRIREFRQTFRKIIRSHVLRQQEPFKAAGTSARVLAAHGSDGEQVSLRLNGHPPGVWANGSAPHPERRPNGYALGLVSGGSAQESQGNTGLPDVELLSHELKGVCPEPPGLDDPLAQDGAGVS

[2] = target: Beta-1 adrenergic receptor (Homo sapiens, UniProt P08588); test: DRUGMATRIX: Adrenergic beta1 radioligand binding (ligand: [125I] Cyanopindolol); assay type: cell membranes, CHO-K1, Membrane; conditions: cho-k1; Not Active = under 50% inhibition at 10 µM
Beta-1 adrenergic receptor, sequence (P08588 whole entry): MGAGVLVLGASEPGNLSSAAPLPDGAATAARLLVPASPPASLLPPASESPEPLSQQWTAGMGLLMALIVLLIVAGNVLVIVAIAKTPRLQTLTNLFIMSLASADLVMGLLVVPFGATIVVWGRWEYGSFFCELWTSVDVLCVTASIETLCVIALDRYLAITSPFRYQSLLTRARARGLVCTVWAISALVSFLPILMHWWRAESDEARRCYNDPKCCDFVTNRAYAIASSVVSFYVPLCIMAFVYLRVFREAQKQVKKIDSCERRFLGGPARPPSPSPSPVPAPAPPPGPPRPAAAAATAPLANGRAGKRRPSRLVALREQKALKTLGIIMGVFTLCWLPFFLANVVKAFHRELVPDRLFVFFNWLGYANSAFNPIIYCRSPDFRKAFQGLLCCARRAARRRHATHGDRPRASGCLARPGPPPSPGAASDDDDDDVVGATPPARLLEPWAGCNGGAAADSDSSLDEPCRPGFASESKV

[3] = target: T4, Muscarinic acetylcholine receptor M5 (Homo sapiens, UniProt P08912); assay type: cell membranes, CHO-K1, Membrane; conditions: cho-k1; also: in other assays of this panel Not Active means under 50% inhibition at 10 µM
T4 sequence (P08912 whole entry): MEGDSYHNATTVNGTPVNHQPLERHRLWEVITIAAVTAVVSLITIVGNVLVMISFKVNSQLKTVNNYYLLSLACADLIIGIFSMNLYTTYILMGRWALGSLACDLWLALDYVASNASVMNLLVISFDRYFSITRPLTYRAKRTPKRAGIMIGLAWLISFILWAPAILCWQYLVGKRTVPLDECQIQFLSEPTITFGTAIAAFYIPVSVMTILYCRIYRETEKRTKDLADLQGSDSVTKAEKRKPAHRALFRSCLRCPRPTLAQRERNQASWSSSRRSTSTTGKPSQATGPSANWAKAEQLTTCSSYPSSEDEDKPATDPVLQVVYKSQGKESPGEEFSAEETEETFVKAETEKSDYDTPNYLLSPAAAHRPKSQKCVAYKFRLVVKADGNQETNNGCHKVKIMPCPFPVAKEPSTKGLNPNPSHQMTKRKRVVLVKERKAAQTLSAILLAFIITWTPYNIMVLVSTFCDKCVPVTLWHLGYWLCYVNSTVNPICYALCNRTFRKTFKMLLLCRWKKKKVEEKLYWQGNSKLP

[4] = target: Mitogen-activated protein kinase 1 (Homo sapiens, UniProt P28482); test: DRUGMATRIX: Protein Serine/Threonine Kinase, ERK2 enzyme inhibition (substrate: Myelin Basic Protein); design: species or system Escherichia coli; conditions: Not Active = under 50% inhibition at 10 µM
Mitogen-activated protein kinase 1, sequence (P28482 whole entry): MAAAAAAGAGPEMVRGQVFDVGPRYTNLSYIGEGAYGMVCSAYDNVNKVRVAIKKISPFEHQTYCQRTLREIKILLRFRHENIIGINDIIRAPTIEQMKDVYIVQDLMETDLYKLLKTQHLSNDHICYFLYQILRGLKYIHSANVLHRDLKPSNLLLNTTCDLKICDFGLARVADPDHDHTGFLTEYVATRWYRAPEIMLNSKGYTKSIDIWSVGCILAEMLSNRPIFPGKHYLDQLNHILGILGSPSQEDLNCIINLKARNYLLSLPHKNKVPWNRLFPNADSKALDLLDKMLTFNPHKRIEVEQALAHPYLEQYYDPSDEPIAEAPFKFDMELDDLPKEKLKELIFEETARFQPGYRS

COc1ccc(CN(CCN(C)C)c2ccccn2)cc1 [PYRILAMINE]
Not Active: IC50 (Glycine receptor) | IC50 (Endothelin-1 receptor) | IC50 (Calcitonin receptor) | IC50 (Progesterone receptor) | IC50 [1] | IC50 (D(1A) dopamine receptor) | IC50 (Adenosine receptor A2a) | IC50 [2] | IC50 [3] | IC50 [4]

NS(=O)(=O)c1cc2c(cc1Cl)NCNS2(=O)=O [HYDROCHLOROTHIAZIDE]
Not Active: IC50 (Glycine receptor) | IC50 (Endothelin-1 receptor) | IC50 (Calcitonin receptor) | IC50 (Progesterone receptor) | IC50 [1] | IC50 (D(1A) dopamine receptor) | IC50 (Adenosine receptor A2a) | IC50 [2] | IC50 [3] | IC50 [4]

CN1C(C(=O)Nc2ccccn2)=C(O)c2ccccc2S1(=O)=O [PIROXICAM]
Not Active: IC50 (Glycine receptor) | IC50 (Endothelin-1 receptor) | IC50 (Calcitonin receptor) | IC50 (Progesterone receptor) | IC50 [1] | IC50 (D(1A) dopamine receptor) | IC50 (Adenosine receptor A2a) | IC50 [2] | IC50 [3] | IC50 [4]

N#C[C@H](O[C@@H]1O[C@H](CO[C@@H]2O[C@H](CO)[C@@H](O)[C@H](O)[C@H]2O)[C@@H](O)[C@H](O)[C@H]1O)c1ccccc1 [AMYGDALIN]
Not Active: IC50 (Glycine receptor) | IC50 (Endothelin-1 receptor) | IC50 (Calcitonin receptor) | IC50 (Progesterone receptor) | IC50 [1] | IC50 (D(1A) dopamine receptor) | IC50 (Adenosine receptor A2a) | IC50 [2] | IC50 [3] | IC50 [4]

CCOC(=O)OC(C)OC1=C(C(=O)Nc2ccccn2)N(C)S(=O)(=O)c2ccccc21 (stereo not given) [AMPIROXICAM]
Not Active: IC50 (Glycine receptor) | IC50 (Endothelin-1 receptor) | IC50 (Calcitonin receptor) | IC50 (Progesterone receptor) | IC50 [1] | IC50 (D(1A) dopamine receptor) | IC50 (Adenosine receptor A2a) | IC50 [2] | IC50 [3] | IC50 [4]

GOLD SODIUM THIOMALATE
Not Active: IC50 (Glycine receptor) | Ki (Glycine receptor) | IC50 (Endothelin-1 receptor) | Ki (Endothelin-1 receptor) | IC50 (Calcitonin receptor) | Ki (Calcitonin receptor) | IC50 (Progesterone receptor) | Ki (Progesterone receptor) | IC50 [1] | Ki [1] | IC50 (D(1A) dopamine receptor) | Ki (D(1A) dopamine receptor) | IC50 (Adenosine receptor A2a) | Ki (Adenosine receptor A2a) | IC50 [2] | Ki [2] | IC50 [3] | Ki [3] | IC50 [4] | Ki [4]

C[C@]12CCC(=O)C=C1CC[C@@H]1[C@@H]2C(=O)C[C@@]2(C)[C@H]1CC[C@]2(O)C(=O)CO [CORTISONE]
Not Active: IC50 (Glycine receptor) | IC50 (Endothelin-1 receptor) | IC50 (Calcitonin receptor) | IC50 (Progesterone receptor) | IC50 [1] | IC50 (D(1A) dopamine receptor) | IC50 (Adenosine receptor A2a) | IC50 [2] | IC50 [3] | IC50 [4]

CCCC[C@@H](CC)COC(=O)c1ccccc1C(=O)OC[C@@H](CC)CCCC [BIS(2-ETHYLHEXYL)PHTHALATE]
Not Active: IC50 (Glycine receptor) | IC50 (Endothelin-1 receptor) | IC50 (Calcitonin receptor) | IC50 (Progesterone receptor) | IC50 [1] | IC50 (D(1A) dopamine receptor) | IC50 (Adenosine receptor A2a) | IC50 [2] | IC50 [3] | IC50 [4]

CCc1ccc(C(=O)C(C)CN2CCCCC2)cc1 (stereo not given) [EPERISONE]
Not Active: IC50 (Glycine receptor) | IC50 (Endothelin-1 receptor) | IC50 (Calcitonin receptor) | IC50 (Progesterone receptor) | IC50 [1] | IC50 (D(1A) dopamine receptor) | IC50 (Adenosine receptor A2a) | IC50 [2] | IC50 [3] | IC50 [4]

CC(C)n1c(/C=C/C(O)CC(O)CC(=O)O)c(-c2ccc(F)cc2)c2ccccc21 (stereo not given) [FLUVASTATIN]
Not Active: IC50 (Glycine receptor) | IC50 (Endothelin-1 receptor) | IC50 (Calcitonin receptor) | IC50 (Progesterone receptor) | IC50 [1] | IC50 (D(1A) dopamine receptor) | IC50 (Adenosine receptor A2a) | IC50 [2] | IC50 [3] | IC50 [4]

CN(C)[C@@H]1C(O)=C(C(N)=O)C(=O)[C@@]2(O)C(O)=C3C(=O)c4c(O)cccc4[C@@](C)(O)[C@H]3[C@H](O)[C@@H]12 [OXYTETRACYCLINE]
Not Active: IC50 (Glycine receptor) | IC50 (Endothelin-1 receptor) | IC50 (Calcitonin receptor) | IC50 (Progesterone receptor) | IC50 [1] | IC50 (D(1A) dopamine receptor) | IC50 (Adenosine receptor A2a) | IC50 [2] | IC50 [3] | IC50 [4]

O=C1CN=C(c2ccccc2)c2cc([N+](=O)[O-])ccc2N1 [NITRAZEPAM]
Not Active: IC50 (Glycine receptor) | IC50 (Endothelin-1 receptor) | IC50 (Calcitonin receptor) | IC50 (Progesterone receptor) | IC50 [1] | IC50 (D(1A) dopamine receptor) | IC50 (Adenosine receptor A2a) | IC50 [2] | IC50 [3] | IC50 [4]

CC(=O)CCCCn1c(=O)c2c(ncn2C)n(C)c1=O [PENTOXIFYLLINE]
Not Active: IC50 (Glycine receptor) | IC50 (Endothelin-1 receptor) | IC50 (Calcitonin receptor) | IC50 (Progesterone receptor) | IC50 [1] | IC50 (D(1A) dopamine receptor) | IC50 (Adenosine receptor A2a) | IC50 [2] | IC50 [3] | IC50 [4]

C=C1C(=O)O[C@@H]2C3O[C@]3(C)CC/C=C(\C)CC[C@@H]12 (stereo not given in full)
Not Active: IC50 (Glycine receptor) | IC50 (Endothelin-1 receptor) | IC50 (Calcitonin receptor) | IC50 (Progesterone receptor) | IC50 [1] | IC50 (D(1A) dopamine receptor) | IC50 (Adenosine receptor A2a) | IC50 [2] | IC50 [3] | IC50 [4]
